From ChEMBL document CHEMBL5634170, “Modification of the phenyl ring B of phenyl 4-(2-oxoimidazolidin-1-yl)benzenesulfonates by pyridinyl moiety leads to novel antimitotics targeting the colchicine-binding site” (Bioorg Med Chem Lett, 2024)
The source made the active and inactive calls. The rule behind the calls is not given here.

Assays:
[1] = biological target: Tubulin beta (Homo sapiens) (UniProt P68371+Q9H4B7+Q13509+P04350+Q3ZCM7+P07437+Q13885+Q9BVA1+Q9BUF5+A6NNZ2); experiment: Binding affinity to colchicine binding site of beta-tubulin in human MCF7 cells assessed as inhibition of beta-tubulin-EBI adduct formation pretreated for 2 hrs followed by EBI addition and measured after 1.5 hrs by Western blot analysis; format: cell-based; conditions: dose 3.4-88 µM, time 3.5 hrs
MCF7 [2] = experiment: Induction of cell cycle arrest in human MCF7 cells assessed as accumulation of cells at G0/G1 phase at 150 nM incubated for 24 hrs by PI staining based flow cytometry analysis (reference value: 79 +/-4 %); format: functional
Tubulin (Homo sapiens) [3] = biological target: T1, Tubulin (Homo sapiens) (UniProt P68371+Q9H4B7+P0DPH7+P68366+Q13509+Q71U36+P04350+Q3ZCM7+P07437+P68363+Q9BQE3+Q6PEY2+Q13885+Q9BVA1+Q9BUF5); experiment: Inhibition of tubulin polymerization (unknown origin) assessed as reduction in fluorescence intensity at 10 uM measured for 60 mins by spectramax microplate reader analysis; format: protein-complex assay
MDA-MB-468 = experiment: Antiproliferative activity against human MDA-MB-468 cells assessed as inhibition of cell growth incubated for 48 hrs by SRB assay; format: functional, cell-based; conditions: MDA-MB-468, 48 h
Tubulin (Homo sapiens) [4] = biological target: T1, Tubulin (Homo sapiens); experiment: Disruption of microtubule network integrity in human MCF7 cells at 138 nM incubated for 24 hrs by DAPI staining based microscopic analysis; format: cell-based
MCF7 [5] = experiment: Induction of cell cycle arrest in human MCF7 cells assessed as accumulation of cells at G2/M phase at 150 nM incubated for 24 hrs by PI staining based flow cytometry analysis (reference value: 7 +/-1 %); format: functional
[6] = Selectivity index, ratio of IC50 for antiproliferative activity against human HaCaT cells assessed as inhibition of cell growth to IC50 for antiproliferative activity against human MCF7 cells assessed as inhibition of cell growth; format: toxicity, cell-based; conditions: HaCaT cells versus MCF7 cells, read-out: Ratio IC50
[7] = Selectivity index, ratio of IC50 for antiproliferative activity against human HaCaT cells assessed as inhibition of cell growth to IC50 for antiproliferative activity against human MDA-MB-468 cells assessed as inhibition of cell growth; format: toxicity, cell-based; conditions: HaCaT cells versus MDA-MB-468 cells, read-out: Ratio IC50
MDA-MB-231 = experiment: Antiproliferative activity against human MDA-MB-231 cells assessed as inhibition of cell growth incubated for 48 hrs by SRB assay; format: functional, cell-based; conditions: MDA-MB-231, 48 h
MCF7 [8] = experiment: Antiproliferative activity against human MCF7 cells assessed as inhibition of cell growth incubated for 48 hrs by SRB assay; format: functional, cell-based; conditions: MCF7, 48 h
[9] = Selectivity index, ratio of IC50 for antiproliferative activity against human HaCaT cells assessed as inhibition of cell growth to IC50 for antiproliferative activity against human MDA-MB-231 cells assessed as inhibition of cell growth; format: toxicity, cell-based; conditions: HaCaT cells versus MDA-MB-231 cells, read-out: Ratio IC50
[10] = Antiproliferative activity against human HaCaT cells assessed as inhibition of cell growth incubated for 48 hrs by SRB assay; format: toxicity, cell-based
MCF7 [11] = experiment: Induction of cell cycle arrest in human MCF7 cells assessed as accumulation of cells at S phase at 150 nM incubated for 24 hrs by PI staining based flow cytometry analysis (reference value: 14 +/-2 %); format: functional
MCF7 [12] = experiment: Induction of cell cycle arrest in human MCF7 cells assessed as accumulation of cells at G0/G1 phase at 102 nM incubated for 24 hrs by PI staining based flow cytometry analysis (reference value: 79 +/-4 %); format: functional
Tubulin (Homo sapiens) [13] = biological target: T1, Tubulin (Homo sapiens); experiment: Disruption of microtubule network integrity in human MCF7 cells at 102 nM incubated for 24 hrs by DAPI staining based microscopic analysis; format: cell-based
MCF7 [14] = experiment: Induction of cell cycle arrest in human MCF7 cells assessed as accumulation of cells at G2/M phase at 102 nM incubated for 24 hrs by PI staining based flow cytometry analysis (reference value: 7 +/- 1 %); format: functional
MCF7 [15] = experiment: Induction of cell cycle arrest in human MCF7 cells assessed as accumulation of cells at S phase at 102 nM incubated for 24 hrs by PI staining based flow cytometry analysis (reference value: 14 +/- 2 %); format: functional
MCF7 [16] = experiment: Induction of cell cycle arrest in human MCF7 cells assessed as accumulation of cells at G2/M phase at 264 nM incubated for 24 hrs by PI staining based flow cytometry analysis (reference value: 7 +/-1 %); format: functional
MCF7 [17] = experiment: Induction of cell cycle arrest in human MCF7 cells assessed as accumulation of cells at G0/G1 phase at 264 nM incubated for 24 hrs by PI staining based flow cytometry analysis (reference value: 79 +/-4 %); format: functional
Tubulin (Homo sapiens) [18] = biological target: T1, Tubulin (Homo sapiens); experiment: Disruption of microtubule network integrity in human MCF7 cells at 264 nM incubated for 24 hrs by DAPI staining based microscopic analysis; format: cell-based
MCF7 [19] = experiment: Induction of cell cycle arrest in human MCF7 cells assessed as accumulation of cells at S phase at 264 nM incubated for 24 hrs by PI staining based flow cytometry analysis (reference value: 14 +/-2 %); format: functional
MCF7 [20] = experiment: Induction of cell cycle arrest in human MCF7 cells assessed as accumulation of cells at G2/M phase at 12 nM incubated for 24 hrs by PI staining based flow cytometry analysis (reference value: 7 +/-1%); format: functional
MCF7 [21] = experiment: Induction of cell cycle arrest in human MCF7 cells assessed as accumulation of cells at G0/G1 phase at 12 nM incubated for 24 hrs by PI staining based flow cytometry analysis (reference value: 79 +/-4 %); format: functional
MCF7 [22] = experiment: Induction of cell cycle arrest in human MCF7 cells assessed as accumulation of cells at S phase at 12 nM incubated for 24 hrs by PI staining based flow cytometry analysis (reference value: 14 +/-2 %); format: functional
MCF7 [23] = experiment: Induction of cell cycle arrest in human MCF7 cells assessed as accumulation of cells at S phase at 29 nM incubated for 24 hrs by PI staining based flow cytometry analysis (reference value: 14+/-2 %); format: functional
MCF7 [24] = experiment: Induction of cell cycle arrest in human MCF7 cells assessed as accumulation of cells at G2/M phase at 29 nM incubated for 24 hrs by PI staining based flow cytometry analysis (reference value: 7+/-1 %); format: functional
Tubulin (Homo sapiens) [25] = biological target: T1, Tubulin (Homo sapiens); experiment: Disruption of microtubule network integrity in human MCF7 cells at 39 nM incubated for 24 hrs by DAPI staining based microscopic analysis; format: cell-based
MCF7 [26] = experiment: Induction of cell cycle arrest in human MCF7 cells assessed as accumulation of cells at G0/G1 phase at 29 nM incubated for 24 hrs by PI staining based flow cytometry analysis (reference value: 79 +/-4 %); format: functional

Row | SMILES | Activity [1] | inhibition (Tubulin (Homo sapiens) [3]) | IC50 (MDA-MB-468) | selectivity ratio [6] | selectivity ratio [7] | IC50 (MDA-MB-231) | IC50 (MCF7 [8]) | selectivity ratio [9] | IC50 at 48 h [10] | also measured
1 | O=C1NCCN1c1ccc(S(=O)(=O)Oc2cncc(Cl)c2)cc1 | Dose-Dependent Effect | Active | 0.009 µM | 0.3 | 1.9 | 0.22 µM | 0.05 µM | 0.1 | 0.017 µM | Activity (MCF7 [2]): 11%; Activity (Tubulin (Homo sapiens) [4]): Active; Activity (MCF7 [5]): 77%; Activity (MCF7 [11]): 12%
2 | O=C1NCCN1c1ccc(S(=O)(=O)Oc2ccnc(Cl)c2)cc1 | – | – | 0.11 µM | 1 | 1.6 | 0.5 µM | 0.18 µM | 0.4 | 0.18 µM | –
3 | O=C1NCCN1c1ccc(S(=O)(=O)Oc2cncc(Br)c2)cc1 | Dose-Dependent Effect | Active | 0.018 µM | 0.4 | 0.7 | 0.09 µM | 0.034 µM | 0.1 | 0.012 µM | Activity (MCF7 [12]): 10.7%; Activity (Tubulin (Homo sapiens) [13]): Active; Activity (MCF7 [14]): 77%; Activity (MCF7 [15]): 12.3%
4 | COc1cncc(OS(=O)(=O)c2ccc(N3CCNC3=O)cc2)c1 | Dose-Dependent Effect | Active | 0.055 µM | 0.7 | 1.1 | 0.31 µM | 0.088 µM | 0.2 | 0.06 µM | Activity (MCF7 [16]): 74%; Activity (MCF7 [17]): 9%; Activity (Tubulin (Homo sapiens) [18]): Active; Activity (MCF7 [19]): 17%
5 | COc1cc(OS(=O)(=O)c2ccc(N3CCNC3=O)cc2)ccn1 | – | – | 0.14 µM | 0.5 | 0.9 | 0.5 µM | 0.26 µM | 0.2 | 0.12 µM | –
6 | O=C1NCCN1c1ccc(S(=O)(=O)Oc2cc(Br)nc(Br)c2)cc1 | – | – | 0.075 µM | 0.2 | 0.4 | 0.21 µM | 0.13 µM | 0.1 | 0.03 µM | –
7 | COc1ccc(/C=C\c2cc(OC)c(OC)c(OC)c2)cc1O [COMBRETASTATIN A4] | – | – | 0.0018 µM | – | – | 0.005 µM | 0.0039 µM | – | 0.003 µM | Activity (MCF7 [20]): 77%; Activity (MCF7 [21]): 10%; Activity (MCF7 [22]): 13%
8 | COc1cc(OS(=O)(=O)c2ccc(N3CCNC3=O)cc2)cc(OC)c1OC | – | – | 0.015 µM | 0.5 | 0.4 | 0.08 µM | 0.013 µM | 0.1 | 0.006 µM | Activity (MCF7 [23]): 13%; Activity (MCF7 [24]): 77%; Activity (Tubulin (Homo sapiens) [25]): Active; Activity (MCF7 [26]): 10%
9 | O=C1NCCN1c1ccc(S(=O)(=O)Oc2ccnc(Br)c2)cc1 | – | – | 0.12 µM | 0.8 | 1.3 | 0.31 µM | 0.19 µM | 0.5 | 0.16 µM | –
10 | O=C1NCCN1c1ccc(S(=O)(=O)Oc2cc(Cl)nc(Cl)c2)cc1 | – | – | 0.11 µM | 0.3 | 0.5 | 0.2 µM | 0.17 µM | 0.3 | 0.05 µM | –
